Values joined by “and” are separate entries in the source; they are usually repeats but may differ in a detail not shown here. Equal entries are not always repeated. Inconclusive results and toxic doses are left out.
Tested on: L1210 leukemia ip in BDF1 mice, survival T/C
Assay: NCI In Vivo Anticancer Drug Screen. Data for tumor model L1210 Leukemia (intraperitoneal) in B6D2F1 (BDF1) mice
Details: endpoint: mean survival time, higher = longer survival
Procedure, shortened: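 Tumor was transplanted into mice, which were then dosed with test compound or vehicle alone. Survival was recorded for each group, and the treated figure was expressed relative to the control figure.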

[1] = dose: 100.0 mg/kg/injection, schedule: Q04DX002 (ip), vehicle: Klucel (hydroxypropylcellulose) (HPC)
[2] = dose: 200.0 mg/kg/injection, schedule: Q04DX002 (ip), vehicle: Klucel (hydroxypropylcellulose) (HPC)
[3] = dose: 400.0 mg/kg/injection, schedule: Q04DX002 (ip), vehicle: Klucel (hydroxypropylcellulose) (HPC)
[4] = dose: 100.0 mg/kg/injection, schedule: Q01DX009 (ip), vehicle: Klucel (hydroxypropylcellulose) (HPC)
[5] = dose: 200.0 mg/kg/injection, schedule: Q01DX009 (ip), vehicle: Klucel (hydroxypropylcellulose) (HPC)
[6] = dose: 400.0 mg/kg/injection, schedule: Q01DX009 (ip), vehicle: Klucel (hydroxypropylcellulose) (HPC)
[7] = dose: 100.0 mg/kg/injection, schedule: Q01DX001 (ip), vehicle: saline
[8] = dose: 200.0 mg/kg/injection, schedule: Q01DX001 (ip), vehicle: saline
[9] = dose: 400.0 mg/kg/injection, schedule: Q01DX001 (ip), vehicle: saline
[10] = dose: 50.0 mg/kg/injection, schedule: Q04DX002 (ip), vehicle: Klucel (hydroxypropylcellulose) (HPC)
[11] = dose: 50.0 mg/kg/injection, schedule: Q01DX001 (ip), vehicle: saline
[12] = dose: 25.0 mg/kg/injection, schedule: Q04DX002 (ip), vehicle: Klucel (hydroxypropylcellulose) (HPC)
[13] = dose: 100.0 mg/kg/injection, schedule: Q04DX003 (ip), vehicle: saline with Tween-80
[14] = dose: 200.0 mg/kg/injection, schedule: Q04DX003 (ip), vehicle: saline with Tween-80
[15] = dose: 400.0 mg/kg/injection, schedule: Q04DX003 (ip), vehicle: saline with Tween-80
[16] = dose: 100.0 mg/kg/injection, schedule: Q04DX002 (ip), vehicle: saline
[17] = dose: 100.0 mg/kg/injection, schedule: Q04DX003 (ip), vehicle: Klucel (hydroxypropylcellulose) (HPC)
[18] = dose: 200.0 mg/kg/injection, schedule: Q04DX003 (ip), vehicle: Klucel (hydroxypropylcellulose) (HPC)
[19] = dose: 400.0 mg/kg/injection, schedule: Q04DX003 (ip), vehicle: Klucel (hydroxypropylcellulose) (HPC)
[20] = dose: 100.0 mg/kg/injection, schedule: Q04DX003 (ip), vehicle: saline
[21] = dose: 200.0 mg/kg/injection, schedule: Q04DX003 (ip), vehicle: saline
[22] = dose: 400.0 mg/kg/injection, schedule: Q04DX003 (ip), vehicle: saline

CC(C)(C)NC(=O)NCc1ccc(Cl)cc1
T/C [1]: 100 % of control
T/C [2]: 88 % of control
T/C [3]: 111 % of control

CN1CCC(=O)c2ccccc21
T/C (dose: 75.0 mg/kg/injection, schedule: Q01DX001 (ip), vehicle: other): 97 % of control
T/C (dose: 150.0 mg/kg/injection, schedule: Q01DX001 (ip), vehicle: other): 100 % of control
T/C (dose: 300.0 mg/kg/injection, schedule: Q01DX001 (ip), vehicle: other): 100 % of control

CCOC(=O)c1ccc(NC(=O)/C=C/C(=O)O)cc1
T/C [4]: 100 % of control
T/C [5]: 95 % of control
T/C [6]: 98 % of control

CN1C(=O)CC(C(=O)c2ccc(N3C(=O)C=CC3=O)cc2)(c2ccccc2)C1=O (stereo unspecified)
T/C (dose: 25.0 mg/kg/injection, schedule: Q04DX002 (ip), vehicle: saline with Tween-80): 102 % of control
T/C (dose: 50.0 mg/kg/injection, schedule: Q04DX002 (ip), vehicle: saline with Tween-80): 98 % of control

CC(C)=NNC(=O)Nc1cccc(C)c1C
T/C [4]: 90 % of control
T/C [5]: 91 % of control

Nc1ccc(CCCC(=O)Nc2ccc(S(=O)(=O)F)cc2)cc1
T/C [7]: 101 % of control
T/C [8]: 97 % of control
T/C [9]: 103 % of control

CCCCOC(=O)c1ccc(OC(=O)Nc2ccc([N+](=O)[O-])cc2OC)cc1
T/C (dose: 50.0 mg/kg/injection, schedule: Q01DX001 (ip), vehicle: Klucel (hydroxypropylcellulose) (HPC)): 93 % of control
T/C (dose: 50.0 mg/kg/injection, schedule: Q01DX009 (ip), vehicle: Klucel (hydroxypropylcellulose) (HPC)): 96 % of control
T/C (dose: 50.0 mg/kg/injection, schedule: Q01DX009 (ip), vehicle: other): 101 % of control
T/C [10]: 97 % of control
T/C (dose: 50.0 mg/kg/injection, schedule: Q04DX003 (ip), vehicle: other): 98 % of control
T/C (dose: 100.0 mg/kg/injection, schedule: Q01DX001 (ip), vehicle: Klucel (hydroxypropylcellulose) (HPC)): 93 % of control
T/C [4]: 96 % of control
T/C (dose: 100.0 mg/kg/injection, schedule: Q01DX009 (ip), vehicle: other): 105 % of control
T/C [1]: 94 % of control
T/C (dose: 100.0 mg/kg/injection, schedule: Q04DX003 (ip), vehicle: other): 109 % of control
T/C (dose: 200.0 mg/kg/injection, schedule: Q01DX001 (ip), vehicle: Klucel (hydroxypropylcellulose) (HPC)): 92 % of control
T/C [5]: 122 % of control
T/C (dose: 200.0 mg/kg/injection, schedule: Q01DX009 (ip), vehicle: other): 102 % of control
T/C [2]: 97 % of control
T/C (dose: 200.0 mg/kg/injection, schedule: Q04DX003 (ip), vehicle: other): 101 % of control
T/C (dose: 400.0 mg/kg/injection, schedule: Q01DX001 (ip), vehicle: Klucel (hydroxypropylcellulose) (HPC)): 101 % of control
T/C [3]: 100 % of control
T/C (dose: 400.0 mg/kg/injection, schedule: Q04DX003 (ip), vehicle: other): 97 % of control

CN=C(NC)c1cccc(NC(=O)c2ccc(C(=O)Nc3cccc(C(=NC)NC)c3)c(N)c2)c1
T/C (dose: 0.5 mg/kg/injection, schedule: Q01DX015 (ip), vehicle: water): 102 % of control
T/C (dose: 1.0 mg/kg/injection, schedule: Q01DX015 (ip), vehicle: water): 102 % of control
T/C (dose: 2.0 mg/kg/injection, schedule: Q01DX015 (ip), vehicle: water): 110 % of control
T/C (dose: 3.75 mg/kg/injection, schedule: Q01DX Z (ip), vehicle: water): 91 % of control
T/C (dose: 4.0 mg/kg/injection, schedule: Q01DX015 (ip), vehicle: water): 102 % of control
T/C (dose: 7.5 mg/kg/injection, schedule: Q01DX Z (ip), vehicle: water): 87 % of control
T/C (dose: 15.0 mg/kg/injection, schedule: Q01DX Z (ip), vehicle: water): 93 % of control

Cc1ccc(NC(=O)COc2ccccc2)c(C)c1
T/C [1]: 107 % of control
T/C [2]: 104 % of control
T/C [3]: 100 % of control

COC(=O)C(CSSCC(NC(=O)c1ccccc1)C(=O)OC)NC(=O)c1ccccc1 (stereo unspecified)
T/C [11]: 98 % of control
T/C [7]: 114 % of control
T/C [8]: 97 % of control

O=C1c2cccc3c([N+](=O)[O-])ccc(c23)C(=O)N1Cc1cccnc1
T/C [12]: 106 % of control
T/C [10]: 100 % of control
T/C [1]: 103 % of control and 86 % of control
T/C [2]: 101 % of control

COc1cc(C(=O)N2CCOC23CCN(Cc2ccccc2)CC3)cc(OC)c1OC
T/C (dose: 100.0 mg/kg/injection, schedule: Q01DX009 (ip), vehicle: saline with Tween-80): 95 % of control
T/C [13]: 102 % of control
T/C (dose: 200.0 mg/kg/injection, schedule: Q01DX009 (ip), vehicle: saline with Tween-80): 90 % of control
T/C [14]: 100 % of control
T/C [15]: 100 % of control

COc1ccccc1C(=O)N/N=C/c1ccc(O)cc1O
T/C [4]: 102 % of control
T/C [5]: 96 % of control
T/C [6]: 100 % of control

O=C1C(c2[nH]c3cc4c(cc3c2O)OCO4)=Nc2cc3c(cc21)OCO3
T/C [11]: 100 % of control
T/C [7]: 103 % of control
T/C [8]: 97 % of control
T/C [9]: 94 % of control

Nc1ccn(C2OC(COC(=O)C34CC5CC(CC(C5)C3)C4)C(O)C2O)c(=O)n1 (stereo unspecified)
T/C (dose: 50.0 mg/kg/injection, schedule: Q01DX001 (ip), vehicle: other): 156 % of control and 170 % of control
T/C (dose: 100.0 mg/kg/injection, schedule: Q01DX001 (ip), vehicle: other): 165 % of control and 248 % of control
T/C (dose: 200.0 mg/kg/injection, schedule: Q01DX001 (ip), vehicle: other): 213 % of control and 300 % of control

CCCNC(=O)Oc1ccccc1C(N)=O
T/C [4]: 105 % of control
T/C [5]: 102 % of control

COC1C=CC23c4cc5c(cc4C(O)OC2CN(C)C3C1)OCO5 (stereo unspecified)
T/C [7]: 106 % of control

Cc1ccc(C(=O)c2ccc(C)cc2)cc1
T/C (dose: 12.5 mg/kg/injection, schedule: Q04DX002 (ip), vehicle: Klucel (hydroxypropylcellulose) (HPC)): 91 % of control
T/C [12]: 94 % of control
T/C [10]: 97 % of control
T/C [4]: 101 % of control
T/C [16]: 101 % of control
T/C [17]: 100 % of control
T/C [5]: 97 % of control
T/C (dose: 200.0 mg/kg/injection, schedule: Q04DX002 (ip), vehicle: saline): 101 % of control
T/C [18]: 89 % of control
T/C [6]: 98 % of control
T/C [19]: 100 % of control

NC(=O)/C=C/c1ccc([N+](=O)[O-])cc1
T/C [17]: 97 % of control
T/C [18]: 100 % of control
T/C [19]: 97 % of control

CC(=O)Nc1ccc(N)cc1N
T/C (dose: 50.0 mg/kg/injection, schedule: Q04DX003 (ip), vehicle: saline): 98 % of control
T/C [13]: 102 % of control
T/C [20]: 92 % of control and 89 % of control
T/C [14]: 115 % of control
T/C [21]: 98 % of control
T/C [15]: 100 % of control
T/C [22]: 89 % of control

CCC(C)C(NCc1ccccc1)C(=O)O (stereo unspecified)
T/C (dose: 100.0 mg/kg/injection, schedule: Q01DX001 (ip), vehicle: acetone): 108 % of control
T/C [20]: 102 % of control
T/C (dose: 200.0 mg/kg/injection, schedule: Q01DX001 (ip), vehicle: acetone): 97 % of control
T/C [21]: 93 % of control
T/C (dose: 400.0 mg/kg/injection, schedule: Q01DX001 (ip), vehicle: acetone): 90 % of control
T/C [22]: 96 % of control

CCCCC(=O)N1C(C)CCCC1C (stereo unspecified)
T/C (dose: 25.0 mg/kg/injection, schedule: Q04DX002 (ip), vehicle: saline): 88 % of control
T/C (dose: 50.0 mg/kg/injection, schedule: Q04DX002 (ip), vehicle: saline): 91 % of control
T/C [16]: 94 % of control
T/C (dose: 400.0 mg/kg/injection, schedule: Q04DX002 (ip), vehicle: saline): 96 % of control

O=C(Nc1nccs1)c1cccc(F)c1
T/C [4]: 104 % of control
T/C [5]: 110 % of control
T/C [6]: 112 % of control

O=C(O)/C=C/C(=O)NCCC(=O)O
T/C (dose: 100.0 mg/kg/injection, schedule: Q01DX009 (ip), vehicle: saline): 114 % of control
T/C (dose: 200.0 mg/kg/injection, schedule: Q01DX009 (ip), vehicle: saline): 115 % of control
T/C (dose: 400.0 mg/kg/injection, schedule: Q01DX009 (ip), vehicle: saline): 109 % of control

— PubChem BioAssay AID248 (DTP/NCI, 2004)
